Source: patent US7754685B2, “Methods and pharmaceutical compositions for the treatment and prevention of hepatitis C infection” (Scynexis, Inc., priority 2005, dated 2010)
Like-named read-outs stand apart in the source and are kept apart here.

What was measured:
[1] = test system: HCV RNA replicon ET; assay: HCV RNA replicon assay in ET cell line, luciferase (LUC) endpoint, antiviral activity; assay type: cell-based; conditions: Hepatitis C virus; Example 6 (2′-C-methyl-cytidine combination experiment), single compound; read-out: EC50 of compound alone
Description: The compounds of the present invention were tested for activity against HCV using the methods adapted from those described by Kriger et al., 2001, Journal of Virology, 75:4614-4624, Pietschmann et al., 2002, Journal of Virology 76:4008-4021, and using HCV RNA constructs as described in U.S. Pat. No. 6,630,343. The contents of these references are hereby incorporated by reference in their entireties.
Compounds were examined in the human hepatoma cell line ET (lub ubi neo/ET), a HCV RNA replicon containing a stable luciferase (LUC) reporter. The HCV RNA replicon ET contains the 5′ end of HCV (with the HCV Internal Ribosome Entry Site (IRES) and the first few amino acids of the HCV core protein) which drives the production of a firefly luciferase (LUC), ubiquitin, and neomycin phosphotransferase (NeoR) fusion protein. Ubiquitin cleavage releases the LUC and NeoR proteins. The EMCV IRES element controls the translation of the HCV, […] NS3-NS5. The NS3 protein cleaves the HCV polyprotein to release the mature NS3, NS4A, NS4B, NS5A and NS5B proteins that are required for HCV replication. At the 3′ end of the replicon is the authentic 3′ NTR of HCV.
Cyclosporine A was also tested.

[2] = test system: Madin-Darby bovine kidney (MDBK) cells; assay: BVDV drug-drug combination assay, cytotoxicity to target cells; assay type: cell-based; conditions: in combination with IFN-α
Description: Phenazine methosulfate (PMS) solution was prepared at 0.15 mg/mL in PBS and stored in the dark at −20° C. XTT/PMS stock was prepared immediately before use by adding 40 μL of PMS per ml of XTT solution. Fifty microliters of XTT/PMS was added to each well of the plate and the plate was reincubated for 4 hours at 37° C. Plates were sealed with adhesive plate sealers and shaken gently or inverted several times to mix the soluble formazan product and the plate was read spectrophotometrically at 450/650 nm with a Molecular Devices Vmax plate reader.

[3] = test system: Bovine Viral Diarrhea Virus (BVDV), NADL strain; assay: BVDV cytopathic effect drug-drug combination assay in MDBK cells (XTT), antiviral; assay type: cell-based; conditions: in combination with IFN-α
[4] = test system: HCV RNA replicon ET; assay: HCV RNA replicon drug-drug combination (checkerboard, MacSynergy II) antiviral synergy; assay type: cell-based
Description: Compounds and combinations were evaluated in the HCV replicon assay described in Example 2 with changes indicated below.
(§1) The HCV RNA replicon antiviral evaluation assay was utilized to examine the efficacy and cytotoxicity of two compounds (e.g., Drug 1 and Drug 2) in combinations of five versus nine half-log concentrations. The assay was performed using a microtiter plate format for allocation of media, drug, cells, and virus. […] Cells were processed 72 hr later when the cells were still sub-confluent. […] The cytotoxicity was evaluated as the concentration of the drug that reduced cell numbers as described in Example 2.
Compounds of this invention were tested as “Drug 2” at nine concentrations between 0.0078 to 2.0 μM. Interferon-alpha (Sigma) was tested as Drug 1 at 0.005 to 0.5 international units per mL (IU/mL). The data obtained from these checkerboard assays were analyzed with the MacSynergy II (v2.01) (Prichard & Shipman, 1990, Antiviral Res. 14:181-205) and Delta Graph (v1.5d) programs. Each data point used to create three-dimensional plots (FIGS. 1A-1C) was derived from the result of triplicate samples. The statistical relevance of the data was analyzed and plotted at one of three confidence levels (68%, 95% or 99%) to display combinatorial results as additive, synergistic or antagonistic.
Effects of the drug combinations were calculated based on the activity of each compound when tested alone. The expected additive antiviral protection was subtracted from the experimentally determined antiviral activity at each combination concentration resulting in a positive value (synergy), a negative value (antagonism) or zero (additive). […] Slightly synergistic activity and highly synergistic activity have been operationally defined as yielding synergy volumes of 50-100 and >100, respectively.
(§2) Compounds and combinations were evaluated in the HCV replicon assay described in Example 5 with changes noted below.
as §2
(§3) Effects of the drug combinations were calculated based on the activity of each compound when tested alone. The expected additive antiviral protection was subtracted from the experimentally determined antiviral activity at each combination concentration resulting in a positive value (synergy), a negative value (antagonism), or zero (additivity). The results of the combination assays are presented three dimensionally at each combination concentration, yielding a surface of activity extending above (synergy) or below (antagonism) the plane of additivity. The volume of the surface is calculated and expressed as a synergy volume (in units of concentration times concentration times percent; e.g. μM2%, nM2%, nMμM %, etc.) calculated at the 95% confidence interval.

[5] = test system: human hepatoma cell line ET; conditions: for IC90: read-out: Cytotoxicity IC90
Description: The compounds were dissolved in DMSO at five half-log concentrations each, ranging from either 0.02 to 2.0 μM, 0.03 to 3 μM, 2.0 to 20 μM, or 1 to 100 μM. Subconfluent cultures of the ET line were plated out into 96 well plates dedicated for the analysis of cell numbers (cytotoxicity) or antiviral activity and the next day the compounds were added to the appropriate wells. The cells were processed 72 h later when the cells were still subconfluent. […] Cytotoxicity was expressed as IC50 and IC90, the concentration of compound that inhibited cell viability by 50% and 90%, respectively. Compound IC50 and IC90 values were calculated using a colorimetric assay as an indication of cell numbers and cytotoxicity. […] Cyclosporine was also tested by way of comparison.
For single-compound assays, the compounds were dissolved in DMSO at five half-log concentrations each, ranging from either 0.02 to 2 μM or 0.2 to 20 μM. Compound EC50 and EC90 values, as well as IC50 and IC90 values, were determined according to Example 2. […] Cyclosporine A was also tested.

[6] = test system: human hepatoma cell line ET; assay: HCV RNA replicon drug-drug combination, cytotoxicity volume; conditions: in combination with Compound 3; FIG. 3B
Description: as §1, §2, §3

[7] = test system: HCV; conditions: interferon as single agent or with ribavirin; cited from earlier work
[8] = in combination with 2′-C-methyl-cytidine, 95% confidence interval
[9] = in combination with IFNα, 95% confidence interval
[10] = read-out: Cytotoxicity IC50, Example 2, ET cells, 72 h, colorimetric assay
[11] = Example 2, ET cells, 72 h, colorimetric assay
[12] = read-out: IC50 of compound alone (cytotoxicity), Example 5 (IFNα combination experiment), single compound

C[C@@]1(O)[C@H](O)[C@@H](CO)O[C@H]1n1ccc(N)nc1=O [2′-C-methyl-cytidine, reference compound]
EC50 [1]: 0.75 µM

CC=CCC(C)C(O)C1C(=O)NC(CC)C(=O)N(C)C(OCCN(C)C)C(=O)N(C)C(CC(C)C)C(=O)NC(C(C)C)C(=O)N(C)C(CC(C)C)C(=O)NC(C)C(=O)NC(C)C(=O)N(C)C(CC(C)C)C(=O)N(C)C(CC(C)C)C(=O)N(C)C(C(C)C)C(=O)N1C (stereo not shown) [C, 3-(2-N,N-dimethylaminoethoxy)cyclosporin]
cytotoxicity interaction of the combination [2]: Antagonistic cytotoxicity
drug interaction, anti-BVDV [3]: Additive

CC=CCC(C)C(O)C1C(=O)NC(CC)C(=O)N(C)C(SCCN(C)C)C(=O)N(C)C(CC(C)(C)O)C(=O)NC(C(C)C)C(=O)N(C)C(CC(C)C)C(=O)NC(C)C(=O)NC(C)C(=O)N(C)C(CC(C)C)C(=O)N(C)C(CC(C)C)C(=O)N(C)C(C(C)C)C(=O)N1C [Compound O, 3-[(R)-2-(N,N-dimethylamino)ethylthio-Sar]-4-(gamma-hydroxymethylleucine)cyclosporin]
antiviral synergy volume [4, 8]: 228 μM^2%
drug interaction (antiviral) of the combination [4, 8]: highly synergistic (Slightly synergistic activity and highly synergistic activity have been operationally defined as yielding synergy volumes of 50-100 and >100, respectively)
drug interaction (antiviral) of the combination ([4]; in combination with Compound 3 (HCV NS3-4A protease inhibitor), FIG. 3A): additive or mildly synergistic
antiviral synergy volume [4, 9]: 122 IU/mLμM %
drug interaction (antiviral) of the combination [4, 9]: highly synergistic (Slightly synergistic activity and highly synergistic activity have been operationally defined as yielding synergy volumes of 50-100 and >100, respectively)
cytotoxicity interaction of the combination [2]: Antagonistic cytotoxicity
IC50 [5, 10]: 13.4 µM
IC90 [5, 11]: > 20 µM
IC50 [5, 12]: > 2 µM
IC50 ([5]; read-out: IC50 of compound alone (cytotoxicity), Example 6, single compound): > 2 µM
cytotoxicity interaction of the combination [6]: antagonistic cytotoxicity

CC=CCC(C)C(O)C1C(=O)NC(CC)C(=O)N(C)C(OC)C(=O)N(C)C(CC(C)(C)O)C(=O)NC(C(C)C)C(=O)N(C)C(CC(C)C)C(=O)NC(C)C(=O)NC(C)C(=O)N(C)C(CC(C)C)C(=O)N(C)C(CC(C)C)C(=O)N(C)C(C(C)C)C(=O)N1C (stereo not shown) [Compound T, 3-(methoxy)-4-(gamma-hydroxymethylleucine)cyclosporin]
antiviral synergy volume [4, 9]: 6 IU/mLμM %
IC50 [5, 10]: > 2 µM
IC90 [5, 11]: > 2 µM
IC50 [5, 12]: > 2 µM

interferon
share of the subject population in which the virus is eradicated [7]: 33-46%
